Assay results: patent US20090149512A1, “Use of Ghrelin Antagonists to the Treatment of Certain CNS Diseases” (Novo Nordisk A/S, priority 2004, published 2009)

Test system: diabetic ob/ob mice
Test: Assessment of level of wakefulness/activity (locomotor activity, light-beam interruption method)
Assay type: in vivo
Conditions: 20 mg/kg i.p. in saline once daily for 14 days, male, 8 months old
Method: The effect of an administered substance (for example a ghrelin antagonist) on the level of wakefulness or activity in animal subjects (for example, mice) may be assessed by means of an activity test in which the primary measurement parameter is locomotor activity.
Baseline activity is determined for all the animals 1-2 days prior to administration of saline (placebo) or ghrelin antagonist. The animals are subsequently monitored, either acutely or at the end of a more sub-chronic or chronic treatment lasting several days or weeks, for behavioural sensitization. On testing days, the animals are allowed to acclimatize to the behavioural monitors for 30 minutes prior to data accumulation if the monitors in question are different from their “home” cages. Activity is recorded for at least 1 hour on each of the testing days (baseline and post-treatment test). In a suitable arrangement, transparent chambers of Plexiglas™ are equipped with aluminium frames on which are mounted infrared light emitters and detectors. The detectors are interfaced to a personal computer (PC). Behavioural or psychomotor activity is defined as the total number of light-beam interruptions recorded during each testing session. […]

## CNC(=O)c1noc(C(Cc2ccccc2)N(C)C(=O)[C@@H](Cc2ccc3ccccc3c2)NC(=O)/C=C/C(C)(C)N)n1 (single isomer, unassigned) [D2]
  behaviour of treated animals when observed: awake and interested in their environment
Versus saline control
  level of wakefulness/activity (locomotor activity) assessed using the light-beam interruption method: became surprisingly active and awake for the duration of the study
